Values of other authors as cited in patent US6852845B1, “Method of identifying toxic agents using NSAID-induced differential gene expression in liver” (Curagen Corporation, priority 1999, dated 2005).

Tests used:
liver [1] = conditions: risk class assigned to each NSAID (low, very low, overdose risk)
liver [2] = conditions: injury type classes of Table 5: hepatocellular damage, cholestasis, elevated transaminase level

| SMILES | Hepatotoxicity Risk of NSAIDs: Risk (liver [1]) | type of hepatoxicity injury induced by the NSAID (liver [2]) |
| --- | --- | --- |
| CC(=O)Oc1ccccc1C(=O)O [Acetylsalicylic Acid] | Overdose Risk | – |
| CC(C(=O)O)c1ccc2oc(-c3ccc(Cl)cc3)nc2c1 (stereo not shown) [Benoxaprofen] | Low Risk | cholestatis-inducing |
| Nc1c(CC(=O)O)cccc1C(=O)c1ccc(Br)cc1 [Bromfenac] | Low Risk | – |
| O=C(O)Cc1ccccc1Nc1c(Cl)cccc1Cl [Diclofenac] | Low Risk | – |
| CCc1cccc2c3c([nH]c12)C(CC)(CC(=O)O)OCC3 (stereo not shown) [Etodolac] | Very Low Risk | – |
| CC(C(=O)O)c1cccc(Oc2ccccc2)c1 (stereo not shown) [Fenoprofen] | Very Low Risk | – |
| CC(C(=O)O)c1ccc(-c2ccccc2)c(F)c1 (stereo not shown) [Flurbiprofen] | Very Low Risk | hepatocellular damage |
| COc1ccc2c(c1)c(CC(=O)O)c(C)n2C(=O)c1ccc(Cl)cc1 [Indomethacin] | Very Low Risk | – |
| CC(C(=O)O)c1cccc(C(=O)c2ccccc2)c1 (stereo not shown) [Ketoprofen] | Very Low Risk | – |
| Cc1ccc(Cl)c(Nc2ccccc2C(=O)O)c1Cl [Meclofenamate] | Very Low Risk | – |
| Cc1cccc(Nc2ccccc2C(=O)O)c1C [Mefenamic Acid] | Very Low Risk | elevated transaminase level |
| COc1ccc2cc(CCC(C)=O)ccc2c1 [Nabumetone] | Very Low Risk | cholestatis-inducing |
| O=C(O)CCc1nc(-c2ccccc2)c(-c2ccccc2)o1 [Oxaprozin] | Very Low Risk | – |
| CCOc1ccc(NC(C)=O)cc1 [Phenacetin] | Overdose Risk | – |
| CCCCC1C(=O)N(c2ccccc2)N(c2ccccc2)C1=O [Phenylbutazone] | Low Risk | – |
| CN1C(C(=O)Nc2ccccn2)=C(O)c2ccccc2S1(=O)=O [Piroxicam] | Very Low Risk | – |
| CC1=C(CC(=O)O)c2cc(F)ccc2/C1=C\c1ccc([S+](C)[O-])cc1 (stereo not shown) [Sulindac] | Low Risk | cholestatis-inducing |
| CC(C(=O)O)c1ccc(C(=O)c2cccs2)cc1 (stereo not shown) [Suprofen] | Very Low Risk | – |
| CN1C(C(=O)Nc2ccccn2)=C(O)c2sccc2S1(=O)=O [Tenoxicam] | Very Low Risk | elevated transaminase level |
| Cc1ccc(C(=O)c2ccc(CC(=O)O)n2C)cc1 [Tolmentin] | Very Low Risk | – |
| Cc1cc(CC(=O)O)n(C)c1C(=O)c1ccc(Cl)cc1 [Zomepirac] | Very Low Risk | elevated transaminase level |
